Test results taken from article PMC10349806 (Nature Communications, 2023).
Several values for one entry are separate records, joined by “and”; a condition that tells them apart may be missing. Equal values may be shown once.

Legend:
PfCRT variant H180A = assay: CQ uptake assay, oocytes expressing H180A; type: cell-based, Plasmodium falciparum
Description: (§1) Site-directed mutagenesis of PfCRT^Dd2 was performed as described using the megaprimer method with overlap extension[21],[54]. The primer pairs used are listed in Supplementary Table 6. Please note that a codon-optimized and oocyte-adapted version of PfCRT^Dd2 was used[22] (Supplementary Fig. 16). The resulting DNA fragment was cloned into the SP64T expression vector and verified by sequencing.
(§2) Oocytes were obtained as described previously. Briefly, adult (>2 years old) female X. laevis frogs (NASCO) were anesthetized in a cooled solution of ethyl 3-amino benzoate methanesulfonate (0.1%, w/v), followed by a surgical removal of parts of the ovary. The ovary lobes were carefully dissected and small pieces of oocytes were incubated in Ca^2+-free ND96 buffer (96 mM NaCl, 2 mM KCl, 1 mM MgCl2 buffered with 5 mM HEPES/NaOH, pH 7.5) supplemented with collagenase D (0.1%, w/v; Roche), BSA (0.5%, w/v), and 9 mm Na2HPO4 at 18 °C for 14-16 h while gentle shaking. After incubation, the oocytes were carefully washed several times with ND96 buffer (96 mM NaCl, 2 mM KCl, 1.8 mM CaCl2, 1 mM MgCl2 buffered with 5 mM HEPES/NaOH, pH 7.5) supplemented with 100 mg l^−1 gentamycin). Defolliculated and healthy-looking stage V-VI oocytes were manually selected for RNA microinjection. The RNA was generated as following: The codon-optimized sequences of PfCRT variants were cloned into the pSP64T expression vector. After vector linearization using the restriction endonucleases BamHI or SalI (New England Biolabs), transcription was performed using the in vitro SP6 mMessage mMachine Kit (Ambion)[34]. The obtained RNA was kept at −80 °C and diluted with nuclease-free water to a concentration of 0.6 μg μl^−1. Precision-bore glass capillary tubes (3.5-inch glass capillaries; Drummond Scientific Co.) were pulled on a vertical puller (P-87 Flaming/Brown micropipette puller, Sutter Instrument Co.), graduated, and placed on a microinjector (Nanoject II Auto-Nanoliter Injector, Drummond Scientific Co.). 50 nl of nuclease-free water alone (control oocytes) or 50 nl of 0.6 μg μl^−1 RNA were injected under stereomicroscopic control. Injected oocytes were incubated for 46–72 h at 18 °C with twice-daily buffer changes before usage in experiments.
Drug uptake assays were performed as described previously[21],[22],[24],[34]. […] The direction of radio-labeled drug transport is here from the mostly acidic extracellular solution (pH 4.5 or 6.0, as indicated) into the oocyte cytosol (pH ∼ 7.2), which corresponds to the efflux of drug from the acidic digestive vacuole (pH 5.2) into the parasite cytoplasm (pH 7.2). The topology of PfCRT in the oolemma is such that both the N- and C-terminus face the extracellular milieu[3],[22]. In the parasite, the N- and C-terminus face the lumen of the digestive vacuole. CQ uptake kinetics were performed by incubating oocytes in ND96 buffer adjusted to a pH of 4.5, 5.0, 5.5, or 6.0 and supplemented with 50 nM [^3H]CQ and one of 7 different CQ concentrations (10 µM, 50 µM, 100 µM, 200 µM, 300 µM, 400 µM, 500 µM CQ). The reaction was stopped at the 60 min time point, which is in the linear uptake range[22],[34] (Supplementary Fig. 17). […] The radioactivity of each sample was measured using a liquid scintillation analyzer Tri-Carb 4910 TR (PerkinElmer). Oocytes that were injected with water instead of RNA were analyzed in parallel, representing the uptake of a drug by diffusion and/or endogenous permeation pathways. […]

PfCRT variant E271A = target: T1, PfCRT variant E271A (Plasmodium falciparum, UniProt Q9N623, A220S/I356T/K76T/M74I/N326S/N75E/Q271A/R371I); assay: CQ uptake assay, oocytes expressing E271A; type: cell-based
T1 sequence (Q9N623 1-424 M74I/N75E/K76T/A220S/Q271A/N326S/I356T/R371I): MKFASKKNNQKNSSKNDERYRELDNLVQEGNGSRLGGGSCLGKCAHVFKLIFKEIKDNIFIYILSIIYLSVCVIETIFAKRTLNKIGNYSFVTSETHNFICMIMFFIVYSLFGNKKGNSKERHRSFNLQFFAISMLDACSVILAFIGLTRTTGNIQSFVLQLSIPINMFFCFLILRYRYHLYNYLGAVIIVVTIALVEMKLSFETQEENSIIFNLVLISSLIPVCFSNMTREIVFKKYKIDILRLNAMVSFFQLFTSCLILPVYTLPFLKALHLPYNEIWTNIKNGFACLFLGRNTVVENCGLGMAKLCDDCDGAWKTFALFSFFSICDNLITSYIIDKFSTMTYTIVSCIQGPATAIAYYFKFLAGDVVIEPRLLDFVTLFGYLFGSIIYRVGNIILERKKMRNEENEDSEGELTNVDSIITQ
Description: as §1, §2
Drug uptake assays were performed as described previously[21],[22],[24],[34]. […] Oocytes that were injected with water instead of RNA were analyzed in parallel, representing the uptake of a drug by diffusion and/or endogenous permeation pathways. […] The specific PfCRT-mediated uptake was determined by subtracting the corresponding background value measured in water-injected oocytes from that of PfCRT-expressing oocytes. […]

[1] = H180A, 50 µM CQ, 1 h, mean ± SEM
[2] = pH 4.5, single replicates, Fig 1d left
[3] = pH 6.0, single replicates, Fig 1d left

CCN(CC)CCCC(C)Nc1ccnc2cc(Cl)ccc12 (stereo not drawn) [CQ, chloroquine]
Activity at pH 4.5 (PfCRT variant H180A; [1]): 1.14 ± 0.27 pmol h-1 oocyte-1
Activity at pH 6.0 (PfCRT variant H180A; [1]): 3.12 ± 0.12 pmol h-1 oocyte-1
R-value (PfCRT variant H180A; H180A, CQ transport at pH 4.5 / pH 6.0): 0.36 ± 0.09
H180A transport activity pH 4.5 (PfCRT variant H180A; [2]): 0.55 pmol oocyte-1 h-1 and 1.69 pmol oocyte-1 h-1 and 1.17 pmol oocyte-1 h-1
H180A transport activity pH 6.0 (PfCRT variant H180A; [3]): 2.90 pmol oocyte-1 h-1 and 3.04 pmol oocyte-1 h-1 and 3.41 pmol oocyte-1 h-1
Activity at pH 4.5 (PfCRT variant E271A; E271A, 50 µM CQ, 1 h, mean ± SEM): 1.01 ± 0.09 pmol h-1 oocyte-1
R-value (PfCRT variant E271A; E271A, CQ transport at pH 4.5 / pH 6.0): 0.61 ± 0.09
E271A transport activity pH 4.5 (PfCRT variant E271A; [2]): 1.17 pmol oocyte-1 h-1 and 1.13 pmol oocyte-1 h-1 and 0.65 pmol oocyte-1 h-1 and 0.98 pmol oocyte-1 h-1
E271A transport activity pH 6.0 (PfCRT variant E271A; [3]): 1.98 pmol oocyte-1 h-1 and 1.71 pmol oocyte-1 h-1 and 1.20 pmol oocyte-1 h-1 and 2.10 pmol oocyte-1 h-1 and 1.74 pmol oocyte-1 h-1
